Measurements from patent US20070037875A1, “Genistein inhibition of transthyretin amyloidosis” (The Scripps Research Institute, priority 2005, published 2007).
Read-outs that look alike come from different tables or passages of the source.

Experiments:
WT TTR [1] = biological target: T1, WT TTR (Homo sapiens, UniProt P02766); assay: Stagnant transthyretin aggregation (fibril formation) assay, turbidity; type: biochemical
T1 construct: made in house; host or cells: E. coli
Procedure: Stagnant aggregation assays were performed as described previously (Lashuel, H. A.; et al. Biochemistry 1999, 38, 13560-13573). A 0.495 mL sample of TTR (7.6 μM (0.4 mg/mL) in 10 mM sodium phosphate, 100 mM KCl, and 1 mM EDTA at pH 7.0) was incubated with 5 μL of isoflavone or flavone inhibitor in DMSO (0.76 mM or 1.44 mM). After 30 min, the samples were diluted with 0.5 mL of 200 mM acetate buffer (pH 4.2, final pH 4.4 for WT and V122I, pH 4.8, final pH 5.0 for V30M) containing 100 mM KCl and 1 mM EDTA. Samples were briefly vortexed and then further incubated at 37° C. for 72 h without stirring. The extent of aggregation was probed by turbidity measurements at 350 and 400 nm on an HP 8453 UV-visible spectrometer. Single-time point samples (72 h) were vortexed immediately before the measurement.
Aggregate formation is reported relative to WT or mutant TTR homotetramer where amount of aggregation in the absence of inhibitor is assigned to be 100%.
Blue bars represent data from an aggregate formation assay wherein tetrameric TTR (3.6 μM) is preincubated with inhibitor (3.6 μM or 7.2 μM) for 30 min prior to lowering the pH to 4.4 (72 h). The Y axis in each bar graph (optical density at 350 nm) represents aggregate formation relative to WT TTR (3.6 μM) assigned as 100%.

[2] = biological target: TTR in human blood plasma (Homo sapiens, UniProt P02766); assay: Plasma selectivity binding to TTR, antibody capture/HPLC method; conditions: 10.8 μM compound in human plasma, 37° C., 18 h; maximum 2.0; lower limit because of wash losses
V122I TTR = biological target: T2, V122I TTR (Homo sapiens, UniProt P02766, V142I); assay: Urea-mediated tetramer dissociation by far-UV circular dichroism; type: biochemical; conditions: V122I TTR 1.8 μM, 6.0 M urea, after 120 h
T2 construct: made in house; host or cells: E. coli
Procedure: (§1) TTR (400 μL, 0.25 mg/mL; 4.5 μM tetramer) was pre-incubated with genistein at concentrations of either 4.5 or 9.0 μM for 18 h at 25° C. Urea (10M, 600 μL) in 50 mM phosphate buffer (pH 7.0) containing 100 mM KCl, 1 mM EDTA and 1 mM DTT was added to the samples immediately prior to the first measurement (1.0 mL total volume, 6.0 M urea, 0.1 mg/mL TTR (1.8 μM tetramer) final concentration). Circular dichroism spectra were recorded as a function of time up to 120 h (25° C.) using a wavelength scan from 220 to 214 nm, sampling every 0.5 nm. The signal from 218 to 215 was averaged and plotted to determine the fraction of TTR tetramer that was dissociated and unfolded at each time point.
(§2) Genistein was further tested for its ability to kinetically stabilize tetrameric TTR against urea-induced dissociation. Since dissociation of the tetramer is required for urea-induced monomer denaturation, it is possible to monitor rate-limiting tetramer dissociation by linking this process to fast monomer unfolding in a post-transition urea concentration (6 M), rendering the process irreversible. The rate and extent of tetramer dissociation at different small molecule concentrations was monitored by far-UV CD spectroscopy in 6.0 M urea. Genistein exerts its most dramatic effect on the amplitude of WT TTR tetramer dissociation (FIG. 4A). At equimolar amounts of genistein and WT TTR (1.8 μM), only 10% of the protein dissociates and unfolds after 120 h, implying that the remainder is stabilized as a consequence of small molecule binding. This compares to 33% of dissociation for V122I (FIG. 4C, triangles) and 87% V30M (FIG. 4B, triangles) dissociating under identical conditions. When the inhibitor concentration (3.6 μM) is twice that of TTR (1.8 μM), only 1% of WT TTR (FIG. 4A, diamonds), 18% of V122I (FIG. 4C, diamonds), and 70% of V30M (FIG. […]) dissociates over the same time period.
(§3) FIG. 4 illustrates a series of graphs showing the rate of urea-mediated tetramer dissociation (6 M) curves for (A) WT (circles), (B) V30M, and (C) V122I TTR. TTR dissociation is slowed dramatically when WT and the variants are preincubated with genistein (1.8 μM, triangles; 3.6 μM, diamonds). The far-UV CD ellipticity at 214-218 nm was compared to that of WT to determine the fraction of TTR that dissociated and rapidly unfolded at each time point.

V30M TTR = biological target: T3, V30M TTR (Homo sapiens, UniProt P02766, V50M); assay: as above; type: biochemical; conditions: V30M TTR 1.8 μM, 6.0 M urea, after 120 h
T3 construct: made in house; host or cells: E. coli
Procedure: as §1, §2, §3

WT TTR [3] = biological target: T1, WT TTR; assay: as above; type: biochemical; conditions: WT TTR 1.8 μM, 6.0 M urea, after 120 h
Procedure: as §1, §2, §3

WT TTR [4] = biological target: T1, WT TTR; assay: Isothermal titration calorimetry; type: binding
Procedure: The dissociation constants characterizing the binding of genistein to WT TTR were determined using a Microcal isothermal titration calorimeter (Microcal Inc., Northhampton, Mass.). A solution of the small molecule (final concentration 432 μM in 25 mM Tris (pH 8.0) containing 100 mM KCl, 1 mM EDTA, 10% EtOH,) was prepared and titrated into an ITC cell containing WT TTR (12 μM in 25 mM Tris (pH 8.0) containing 100 mM KCl, 1 mM EDTA, 10% EtOH). For all runs, a small preliminary injection was followed by identical injections (2.0-5.0 μL) up to a ligand:protein molar ratio of at least 4:1. The data were fit by a nonlinear least squares approach to either an identical binding sites model, or a sequential interacting binding sites model (Foss, T. R.; et al. J. Mol. Biol. 2005, in press) utilizing Microsoft Excel (Microsoft Corporation, Redmond, Wash.) with the Solver plugin.
Isothermal titration calorimetry was employed to determine the dissociation constants of the binding of genistein to WT TTR at pH 8.0 (25° C.). Integration of the thermogram after subtraction of blanks yielded a binding isotherm that fit equally well to a model of two sequential interacting binding sites with negative cooperativity or two identical non-interacting sites. The fit to sequential binding sites yielded dissociation constants of Kd1=40±25 nM, Kd2=1400±170 nM. Fitting the data to identical binding sites gave Kd1=Kd2=845±45 nM with an occupancy of 1.92±0.07.

[5] = cited from earlier work
Caco-2 cells = Caco-2 cells and perfused rat intestinal models; cited from earlier work
[6] = even at the relatively high concentrations employed; cited from earlier work

O=c1cc(-c2ccc(O)cc2)oc2cc(O)cc(O)c12 [apigenin]
decrease in WT TTR aggregation inhibition relative to genistein (WT TTR [1]; pH 4.4): 2 fold

O=c1c(-c2ccc(O)cc2)coc2cc(O)ccc12 [daidzein, reference compound]
decrease in aggregation inhibition potency relative to genistein (WT TTR [1]; inhibitor 7.2 μM, twice that of TTR): approximately 4 fold
plasma selectivity: binding stoichiometry to TTR [2]: ≥ 0.75 equivalents per tetramer

O=c1c(-c2ccc(O)cc2)coc2cc(O)cc(O)c12 [genistein]
protein that dissociates and unfolds (V122I TTR; genistein 1.8 μM): 33%
protein that dissociates and unfolds (V122I TTR; genistein 3.6 μM): 18%
protein that dissociates and unfolds (V30M TTR; genistein 1.8 μM): 87%
protein that dissociates and unfolds (V30M TTR; genistein 3.6 μM): 70%
protein that dissociates and unfolds (WT TTR [3]; genistein 1.8 μM): 10%
protein that dissociates and unfolds (WT TTR [3]; genistein 3.6 μM): 1%
Kd (WT TTR [4]; Kd1, two sequential interacting binding sites model (negative cooperativity), pH 8.0, 25° C.): 0.04 µM
Kd (WT TTR [4]; Kd1=Kd2, two identical non-interacting sites model, pH 8.0, 25° C.): 0.845 µM
Kd (WT TTR [4]; read-out: Kd2, negative cooperativity, ITC): 1.4 µM
Kd (WT TTR [4]; read-out: Kd2, two sequential interacting binding sites model (negative cooperativity), pH 8.0, 25° C.): 1.4 µM
in vivo plasma concentrations of genistein ([5]; dose of 16 mg/kg of body weight, oral): 0.1 to 8 µM
half-life in plasma ([5]; men): 3.2 h
half-life in plasma ([5]; women): 3.8 h
intestinal absorption (Caco-2 cells): efficiently absorbed into the intestine
adverse health effects in toxicity studies [6]: does not appear to cause adverse health effects
plasma selectivity: binding stoichiometry to TTR [2]: 1.45 equivalents per tetramer

O=c1c(-c2ccc(O)cc2)coc2cc(O[C@@H]3O[C@H](CO)[C@@H](O)[C@H](O)[C@H]3O)cc(O)c12 [genistin, reference compound]
permeability, lower than corresponding aglycone (genistein) (Caco-2 cells): approximately 5 fold
